Measured values published in US4112228A, “7-(D-α-Hydroxy-2-arylacetamido)-3-(2-carboxyalkyl-2,3-dihydro-s-tri azolo-[4,3-b]pyridazin-3-on-6-ylthiomethyl)-3-cephem-4-carboxylic acids and derivatives” (priority 1977, dated 1978).
Converted amounts (≈) assume the structure as drawn. Where two headings read alike, the source gives them in different places.

How the values were obtained:
Pr. vulgaris = assay: MIC by Steers' agar dilution method; conditions: Proteus vulgaris
[1] = Nephrotoxicity test in rabbits; conditions: 100 mg./kg. (iv)
Shig. dysenteriae = assay: MIC by Steers' agar dilution method; conditions: Shigella dysenteriae, MHA
Klebsiella sp. = assay: MIC by Steers' agar dilution method
Shig. flexneri = assay: MIC by Steers' agar dilution method; assay type: cell-based; conditions: Shigella flexneri, MHA
P. stuartii = assay: MIC by Steers' agar dilution method; conditions: Providencia stuartii
P. inconstans = assay: MIC by Steers' agar dilution method; conditions: Providencia alcalifaciens
E. coli Juhl = assay: Standard experimental infection in mice; assay type: in vivo; conditions: Table 6
Sal. anthracis = assay: microbe, parasite or virus in culture; assay type: cell-based
[2] = Stability in solution (remaining activity by paper disc assay); assay type: physicochemical; conditions: for Remaining Activity (%): 0 days; for remaining at 48 h: 2 days; for remaining at 72 h: 3 days; for remaining at 168 h: 7 days
Protocol: Stability of BB-[…] was determined in both a 10% and an 0.02% solution. The stability is indicated as the relative activity remaining in the test solution at given periods to the initial solution. The activity was assayed using paper discs on B. subtilis PCI 219 plate (pH 6).

Sal. enteritidis = assay: MIC by Steers' agar dilution method; conditions: Salmonella enterica
S. aureus Smith = assay: Standard experimental infection in mice; assay type: in vivo; conditions: Table 6
P. vulgaris A9436 (Pv-1) = assay: Standard experimental infection (single sc treatment); conditions: for No. of survivors/No. tested: Run C-808, single sc
[3] = Blood levels in mice after subcutaneous administration; assay type: in vivo; conditions: mouse, read-out: Blood level; for concentration at 0.25 h: 15'; for concentration at 0.5 h: 30'; for concentration at 1 h: 60'; for concentration at 2 h: 120'
Protocol: Groups of mice were administered subcutaneously graded doses of 40, 20 and 10 mg./kg..

[4] = test system: P. mirabilis A9900 (Pm-2); assay: Standard experimental infection (single sc treatment); conditions: for No. of survivors/No. tested: Run C-810, 1×10^3 LD50, single sc
[5] = 0.02% solution, pH 4 (0.1 M AcOH - NaOAc buffer)
[6] = 0.02% solution, pH 7 (0.1 M phosphate buffer)
[7] = 0.1 m nh4oh-nh4cl buffer, 0.02% solution, pH 9 (0.1 M NH4 OH--NH4 Cl buffer)
[8] = 10% aqueous solution, room temperature, pH 6.1 (unadjusted)

O=C(O)Cn1nc2ccc(SCC3=C(C(=O)O)N4C(=O)C(NC(=O)[C@H](O)c5ccccc5)[C@H]4SC3)nn2c1=O (stereo partly drawn) [BB-S488, 7-(D-Mandelamido)-3-(2-carboxymethyl-2,3-dihydro-s-triazolo[4,3-b]pyridazin-3-on-6-ylthiomethyl)-3-cephem-4-carboxylic Acid]
MIC (Pr. vulgaris; A9436, MHA, Table 1): 0.1 µg/mL (≈ 0.175 µM)
MIC (Pr. vulgaris; A9699, MHA, Table 1): 0.2 µg/mL (≈ 0.349 µM)
MIC (Pr. vulgaris; ATCC9920, Pv-4 ATCC 9920, MHA, Table 3): 0.1 µg/mL (≈ 0.175 µM)
MIC (Pr. vulgaris; Pv-1 A9436, HIA, Table 4): 0.2 µg/mL (≈ 0.349 µM)
MIC (Pr. vulgaris; Pv-1 A9436, MHA, Table 3): 0.2 µg/mL (≈ 0.349 µM)
MIC (Pr. vulgaris; Pv-1 A9436, MHA, Table 4): 0.1 µg/mL (≈ 0.175 µM)
MIC (Pr. vulgaris; Pv-1 A9436, NA, Table 4): 0.2 µg/mL (≈ 0.349 µM)
MIC (Pr. vulgaris; Pv-2 A9526, MHA, Table 3): 6.3 µg/mL (≈ 11 µM)
MIC (Pr. vulgaris; Pv-3 A9699 (β-lactamase), HIA, Table 4): 100 µg/mL (≈ 175 µM)
MIC (Pr. vulgaris; Pv-3 A9699 (β-lactamase), MHA, Table 4): 0.8 µg/mL (≈ 1.4 µM)
MIC (Pr. vulgaris; Pv-3 A9699 (β-lactamase), NA, Table 4): 0.8 µg/mL (≈ 1.4 µM)
MIC (Pr. vulgaris; Pv-3 A9699, MHA, Table 3): 6.3 µg/mL (≈ 11 µM)
MIC (Pr. vulgaris; Pv-5 A9539, MHA, Table 3): 25 µg/mL (≈ 43.7 µM)
MIC (Pr. vulgaris; Pv-6 A9716, MHA, Table 3): 0.1 µg/mL (≈ 0.175 µM)
MIC (Pr. vulgaris; Pv-7 A21240, MHA, Table 3): 25 µg/mL (≈ 43.7 µM)
MIC (Pr. vulgaris; strain not given (1st of 2), MHA, Example 10): 0.1 µg/mL (≈ 0.175 µM)
MIC (Pr. vulgaris; strain not named (2nd of 2), MHA, Example 10): 0.8 µg/mL (≈ 1.4 µM)
Nephrotoxicity [1]: No nephrotoxic sign was seen
MIC (Shig. dysenteriae; Example 10): 0.025 µg/mL (≈ 0.0437 µM)
MIC (Shig. dysenteriae; Table 1): 0.025 µg/mL (≈ 0.0437 µM)
MIC (Shig. dysenteriae; Sd-1, Table 3): 0.1 µg/mL (≈ 0.175 µM)
MIC (Klebsiella sp.; Kx-2 A9662, MHA, Table 3): 0.4 µg/mL (≈ 0.699 µM)
MIC (Klebsiella sp.; Kx-3 A20346 (β-lactamase), HIA, Table 4): 0.2 µg/mL (≈ 0.349 µM)
MIC (Klebsiella sp.; Kx-3 A20346 (β-lactamase), MHA, Table 4): 0.2 µg/mL (≈ 0.349 µM)
MIC (Klebsiella sp.; Kx-3 A20346 (β-lactamase), NA, Table 4): 0.2 µg/mL (≈ 0.349 µM)
MIC (Klebsiella sp.; Kx-3 A20346, MHA, Table 3): 0.2 µg/mL (≈ 0.349 µM)
MIC (Shig. flexneri; A9684, Table 1): 12.5 µg/mL (≈ 21.8 µM)
MIC (Shig. flexneri; Example 10): 25 µg/mL (≈ 43.7 µM)
MIC (Shig. flexneri; Sr-1 A9684, Table 3): 12.5 µg/mL (≈ 21.8 µM)
MIC (P. stuartii; Ps-1 A20745, HIA, Table 4): 50 µg/mL (≈ 87.3 µM)
MIC (P. stuartii; Ps-1 A20745, MHA, Table 3): 0.4 µg/mL (≈ 0.699 µM)
MIC (P. stuartii; Ps-1 A20745, MHA, Table 4): 12.5 µg/mL (≈ 21.8 µM)
MIC (P. stuartii; Ps-1 A20745, NA, Table 4): 50 µg/mL (≈ 87.3 µM)
MIC (P. stuartii; Ps-2 A20894, HIA, Table 4): 0.4 µg/mL (≈ 0.699 µM)
MIC (P. stuartii; Ps-2 A20894, MHA, Table 3): 0.2 µg/mL (≈ 0.349 µM)
MIC (P. stuartii; Ps-2 A20894, MHA, Table 4): 0.2 µg/mL (≈ 0.349 µM)
MIC (P. stuartii; Ps-2 A20894, NA, Table 4): 0.8 µg/mL (≈ 1.4 µM)
MIC (P. stuartii; Ps-3 A20911 (β-lactamase), HIA, Table 4): 25 µg/mL (≈ 43.7 µM)
MIC (P. stuartii; Ps-3 A20911 (β-lactamase), MHA, Table 4): 12.5 µg/mL (≈ 21.8 µM)
MIC (P. stuartii; Ps-3 A20911 (β-lactamase), NA, Table 4): 50 µg/mL (≈ 87.3 µM)
MIC (P. stuartii; Ps-3 A20911, MHA, Table 3): 0.8 µg/mL (≈ 1.4 µM)
MIC (P. stuartii; Ps-4 A21051, MHA, Table 3): 50 µg/mL (≈ 87.3 µM)
MIC (P. stuartii; Ps-5 A21057, MHA, Table 3): 0.2 µg/mL (≈ 0.349 µM)
MIC (P. inconstans): 0.1 µg/mL (≈ 0.175 µM)
No. of survivors/No. tested (E. coli Juhl; 0.1 mg./kg.): 2/5
No. of survivors/No. tested (E. coli Juhl; 0.4 mg./kg.): 5/5
No. of survivors/No. tested (E. coli Juhl; 1.6 mg./kg.): 5/5
No. of survivors/No. tested (E. coli Juhl; 6.3 mg./kg.): 5/5
No. of survivors/No. tested (E. coli Juhl; 25 mg./kg.): 5/5
ED50 (E. coli Juhl; Escherichia coli, read-out: PD50): 0.12 mg/kg
MIC (Sal. anthracis): 0.1 µg/mL (≈ 0.175 µM)
Remaining Activity (%) [2, 5]: 100%
remaining at 48 h [2, 5]: 93%
remaining at 72 h [2, 5]: 78%
remaining at 168 h [2, 5]: 102%
Remaining Activity (%) [2, 6]: 100%
remaining at 48 h [2, 6]: 87%
remaining at 72 h [2, 6]: 64%
remaining at 168 h [2, 6]: 56%
Remaining Activity (%) ([2]; 0.02% solution, pH 9 (0.1 M NH4 OH--NH4 Cl buffer)): 100%
remaining at 24 h ([2]; 0.1 m nh4oh-nh4cl buffer, 0.02% solution, pH 9 (0.1 M NH4 OH--NH4 Cl buffer), 1 day): 20%
remaining at 48 h [2, 7]: 14%
remaining at 72 h [2, 7]: 13%
remaining at 168 h [2, 7]: 0%
Remaining Activity (%) [2, 8]: 100%
remaining at 48 h [2, 8]: 128%
remaining at 72 h [2, 8]: 90%
remaining at 168 h [2, 8]: 116%
MIC (Sal. enteritidis; A9531, MHA, Table 1): 0.05 µg/mL (≈ 0.0873 µM)
MIC (Sal. enteritidis; MHA, Example 10): 0.025 µg/mL (≈ 0.0437 µM)
MIC (Sal. enteritidis; Se-1 A9531, MHA, Table 3): 0.1 µg/mL (≈ 0.175 µM)
No. of survivors/No. tested (S. aureus Smith; 0.1 mg./kg.): 2/5
No. of survivors/No. tested (S. aureus Smith; 0.4 mg./kg.): 5/5
No. of survivors/No. tested (S. aureus Smith; 1.6 mg./kg.): 5/5
No. of survivors/No. tested (S. aureus Smith; 6.3 mg./kg.): 5/5
No. of survivors/No. tested (S. aureus Smith; 25 mg./kg.): 5/5
ED50 (S. aureus Smith; Staphylococcus aureus, read-out: PD50): 0.12 mg/kg
ED50 (P. vulgaris A9436 (Pv-1); Proteus vulgaris, in Mus musculus, sc, read-out: PD50): 1.1 mg/kg
No. of survivors/No. tested (P. vulgaris A9436 (Pv-1); 0.4 mg./kg.): 1/5
No. of survivors/No. tested (P. vulgaris A9436 (Pv-1); 1.6 mg./kg.): 3/5
No. of survivors/No. tested (P. vulgaris A9436 (Pv-1); 6.3 mg./kg.): 5/5
No. of survivors/No. tested (P. vulgaris A9436 (Pv-1); 25 mg./kg.): 5/5
concentration at 0.25 h ([3]; sc 10 mg./kg.): 5000 ng/mL
concentration at 0.5 h ([3]; sc 10 mg./kg.): 3000 ng/mL
concentration at 1 h ([3]; sc 10 mg./kg.): 800 ng/mL
concentration at 0.25 h ([3]; sc 20 mg./kg.): 7400 ng/mL
concentration at 0.5 h ([3]; sc 20 mg./kg.): 6000 ng/mL
concentration at 1 h ([3]; sc 20 mg./kg.): 4300 ng/mL
concentration at 2 h ([3]; sc 20 mg./kg.): 700 ng/mL
concentration at 0.25 h ([3]; sc 40 mg./kg.): 19000 ng/mL
concentration at 0.5 h ([3]; sc 40 mg./kg.): 17000 ng/mL
concentration at 1 h ([3]; sc 40 mg./kg.): 12000 ng/mL
concentration at 2 h ([3]; sc 40 mg./kg.): 1600 ng/mL
ED50 ([4]; Proteus mirabilis, in Mus musculus, sc, read-out: PD50): 1.1 mg/kg
No. of survivors/No. tested ([4]; 0.1 mg./kg.): 0/5
No. of survivors/No. tested ([4]; 0.4 mg./kg.): 0/5
No. of survivors/No. tested ([4]; 1.6 mg./kg.): 4/5
No. of survivors/No. tested ([4]; 6.3 mg./kg.): 5/5
No. of survivors/No. tested ([4]; 25 mg./kg.): 5/5
